Test results published in patent US20140314787A1, “Treatment for neurodegenerative diseases” (NOVARTIS FORSCHUNGSSTIFTUNG, ZWEIGNIEDERLASSUNG, FRIEDRICH …, priority 2011, published 2014).

Tests used:
[1] = system: FSOD mice (mutant SOD1(G93A)); assay: climb test of motor performance in FSOD mice; assay type: in vivo; conditions: for motor performance: figure legend (FIG. 9, FIG. 10)
Description: Climb test: Neurodegenerative status of the mice was tested using a climb test device developed by some of the inventors. This device is based on a flappable wire meshwork platform (10×10 cm) suspended from one corner by a rigid boom. The platform is suspended about 40 cm above a surface. The platform is fully open and the test is performed in ambient light. During the test, mice are prevented of climbing the boom by a transparent plastic disk. For the performance of the test, mice were gently transferred to the platform and allowed to explore it for 2 minutes. […] As soon as the mice reached the upper surface of the grid (all four limbs on the same side), the grid was gently flipped over so that the mice were not be allowed to rest. The number of performed climbs in the test period was counted, the test period being 11 minutes (5 min and 30 min variants have been tested as well). The climb movement to be performed by the mice involves a forceful yet brief push with fore- and hind-limbs, thus mimicking short-lived but powerful movements that are known to recruit fast motoneurons.
At day P27, mice were treated either with Eer-I (1 μg/g in 150 mM NaCl, s.c., daily) or with saline. Mice were tested at P29 and at P32.
On day P47 treatment was stopped and the mice were tested 2 days later.
Treatment dose was 1 μg/g in 150 mM NaCl, s.c., daily. Mice were treated and tested at baseline (p32), and thereafter tested in the climb test at 38, 43, 56 days of age.

VCP [2] = molecular target: T1, VCP (Homo sapiens, UniProt P55072); conditions: literature (Chou T F et al. 2011); cited from earlier work
[3] = system: FSOD mice (mutant SOD1(G93A)); assay: grid test of motor performance / muscle strength in FSOD mice; assay type: in vivo
Description: Motor performance was assessed by grid test, a standard task for the quantification of muscle strength and neurological impairment.

[4] = body weight recording in treated mice; assay type: in vivo
Description: Body weight was recorded at P45, P65, P85 and then at 5-7 days intervals. Five mice per group were followed, representative individuals are shown.

[5] = system: Mutant SOD1(G93A) transgenic mice; assay: survival of mutant SOD1(G93A) transgenic mice; assay type: in vivo
Description: Survival was determined up to the day of death or euthanasia (according to the termination criteria of a righting time >30 sec).

VCP [6] = assay: VCP immunostaining intensity in lumbar spinal cord motoneurons; assay type: in vivo, mice
Description: After washing in PBS, lumbar (L2-L5) spinal cord was cryoprotected overnight in 30% sucrose. Lumbar spinal cord was embedded in OCT and sectioned at 50 μm. Sections were blocked in PBS-3% BSA −0.3% Triton X 100, and incubated double-overnight at 4 C in the same buffer plus anti VCP monoclonal antibody (Affinity Bioreagents) diluted 1:10,000 and polyclonal anti VAChT (Sigma) 1:1000. Sections were then briefly washed with PBS and incubated for 120 min at RT with goat-anti-rabbit (Alexa 647, Invitrogen) or goat-anti-mouse (Alexa 488, Invitrogen). Confocal images were acquired using an Zeiss LSM700 microscope, fitted with a 20×air objective. Images were processed using Imaris software. For the analysis of VCP labeling intensities, data were acquired with identical confocal settings, ensuring that signals at the brightest cells were not saturated, and that background levels outside clusters were still detectable. Images were then analyzed quantitatively using Image-Pro 5 software (Media Cybernetics). Signal intensities were acquired within areas inside cells, excluding areas lacking signal; background levels outside cells were subtracted from these values.

VCP [7] = molecular target: T1, VCP; conditions: literature (Wang Q et al. 2008, 2010); cited from earlier work
[8] = 1 μg/g s.c. daily from weaning (P20), vs untreated
[9] = FSOD mice treated from P20, s.c. daily
[10] = FSOD mice treated from P63, s.c. daily

T1 sequence (P55072 whole entry): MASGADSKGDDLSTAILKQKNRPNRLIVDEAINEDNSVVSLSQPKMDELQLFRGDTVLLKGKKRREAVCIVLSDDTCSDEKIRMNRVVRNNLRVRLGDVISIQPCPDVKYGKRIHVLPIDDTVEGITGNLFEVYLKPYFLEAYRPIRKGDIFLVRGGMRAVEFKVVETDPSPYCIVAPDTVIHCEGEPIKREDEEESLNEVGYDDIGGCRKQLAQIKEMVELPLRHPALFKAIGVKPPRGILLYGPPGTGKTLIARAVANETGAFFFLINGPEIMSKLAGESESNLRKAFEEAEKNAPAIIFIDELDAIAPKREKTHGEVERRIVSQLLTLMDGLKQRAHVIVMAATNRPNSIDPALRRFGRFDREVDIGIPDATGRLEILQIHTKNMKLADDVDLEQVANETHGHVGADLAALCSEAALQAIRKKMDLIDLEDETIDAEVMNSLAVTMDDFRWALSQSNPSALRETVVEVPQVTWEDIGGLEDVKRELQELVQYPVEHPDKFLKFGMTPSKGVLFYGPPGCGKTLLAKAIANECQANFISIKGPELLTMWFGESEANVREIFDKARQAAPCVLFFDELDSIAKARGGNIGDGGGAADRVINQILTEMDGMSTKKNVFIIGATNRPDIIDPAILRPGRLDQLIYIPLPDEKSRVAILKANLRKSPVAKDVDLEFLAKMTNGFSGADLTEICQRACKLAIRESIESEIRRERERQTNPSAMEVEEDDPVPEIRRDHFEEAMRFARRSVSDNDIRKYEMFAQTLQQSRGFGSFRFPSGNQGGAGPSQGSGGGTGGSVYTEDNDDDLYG

## O=[N+]([O-])C=Cc1ccc2c(c1)OCO2 [Syk-inhibitor III, 3,4-Methylenedioxy-β-nitrostyrene]
[1]; FSOD mice
  motor performance: improves motor performance
[1]; two mice, 1 μg/g s.c. daily, baseline p32, tested at 38, 43, 56 days of age
  performance in the climb test: markedly improved and reached the range of performance for WT mice
VCP [2]
  VCP inhibition (mode): substantial efficacy as an irreversible inhibitor of the D2 ATPase site on VCP

## CC1(C)C(N(O)C(=O)Nc2ccc(Cl)cc2)N(c2ccc(Cl)cc2)C(=O)N1CC(=O)NN=CC=Cc1ccc([N+](=O)[O-])o1 (stereo not shown) [Eer-I, 3-(4-Chlorophenyl)-4-[[[(4-chlorophenyl)amino]carbonyl]hydroxyamino]-5,5-dimethyl-2-oxo-1-imidazolidineacetic acid 2-[3-(5-nitro-2-furanyl)-2-propen-1-ylidene]hydrazide]
[3]; 1 μg/g s.c. daily from P63
  grid test performance soon after beginning of treatment: fast improvement in performance
  grid test performance vs untreated counterparts: performed significantly better than their untreated counterparts
[3]; [8]
  decline in muscle strength over time (grid test): significantly slower decline
  grid test performance at the earliest time point: better performance
[3]; FIG. 3 legend
  motor disability: delays motor disability
[1]; FSOD mice (n=4), 1 μg/g s.c. daily from P18, tested at P27, P37 and P47
  climb performance: comparable to wt mice
[1]; FSOD mice (n=4), after withdrawal
  climb performance upon resumption of the treatment: quickly improved
[1]; FSOD mice (n=4), resumption of treatment after withdrawal
  treatment time until performance comparable with that before withdrawal: 2 to 5 days
[1]; FSOD mice (n=4), treatment stopped on P47, tested at P49
  climb performance after 2 days of withdrawal of treatment: sharp drop in performance, down to a level comparable with that of untreated FSOD mice of the same age
[1]; [9]
  climb test performance (climb scores): markedly preserved performance, with climb scores comparable with WT mice
  duration of stable climb test performance: stable up to day P65
[1]; [10]
  climb score at day P85: returning in the range of untreated FSOD mice
  climb test performance: marked but transient improvement in performance
  increase of climb score: up to four-fold
[1]; FSOD mice, 1 μg/g s.c. daily from P27
  climb test performance after 5 days of treatment: level comparable with wt
[1]; FSOD mice, 1 μg/g s.c. daily from P27, tested at P29 and P32, vs saline
  climb test performance: marked improvement in performance
[1]; FSOD mice, FIG. 4 legend
  performance in the climb test: markedly improve
[1]; FSOD mice, FIG. 7 legend
  performance in the climb test: quickly restores performance
[4]; FIG. 5 legend
  body weight loss: delays body weight loss
[4]; 1 μg/g s.c. daily from P63
  bodyweight of FSOD mice: stabilized at a level lower than the littermates treated from weaning
[4]; 1 μg/g s.c. daily from weaning (P20)
  bodyweight of FSOD mice: stable bodyweight until day P140-145
[4]; wild type mice, 1 μg/g s.c. daily
  body weight of wild type mice: expected progressive increase in body weight
[4]; wild type mice, 1 μg/g s.c. daily, from body weight
  overt toxicity of the treatment: lack of overt toxicity
[5]; 1 μg/g s.c. daily since weaning (P20), n=7 per group
  survival vs untreated mutant mice: survived significantly longer
[5]; FSOD mice, FIG. 6 legend
  survival: prolongs FSOD mice survival
VCP [6]; FSOD mice treated with Eer-I vs FSOD and WT controls, lumbar spinal cord
  average cytoplasmic VCP staining intensity in motoneurons: significantly reduced (to an extent comparable with WT)
VCP [6]; FSOD mice, FIG. 11 legend
  VCP upregulation: reverses VCP upregulation
VCP [7]
  degradation of target misfolded proteins whose translocation and disposal is dependent upon VCP: prevent the degradation of target misfolded proteins

## c1ccc(CNc2nc(NCc3ccccc3)c3ccccc3n2)cc1 [DBEQ, N^2,N^4-Dibenzylquinazoline-2,4-diamine]
[1]; FSOD mice
  motor performance: improves motor performance
[1]; three FSOD mice, 1 μg/g s.c. daily after day 29, tested at P31, P34, 37 and 45
  motor performance in the climb test: progressive improvement in motor performance reaching the range of wt mice
VCP [2]
  VCP inhibition (mode): reversible, ATP-competitive direct VCP inhibitor
